{
  "source": "patent US20240269094A1",
  "about": "“Treatment of canine dermatitis and skin irritation” (priority 2023, published 2024)",
  "key": {"[1]": {"molecular_target": "T1, TRPM8 (Homo sapiens, UniProt Q7Z2W7)", "T1 sequence (Q7Z2W7 whole entry, species assumed)": "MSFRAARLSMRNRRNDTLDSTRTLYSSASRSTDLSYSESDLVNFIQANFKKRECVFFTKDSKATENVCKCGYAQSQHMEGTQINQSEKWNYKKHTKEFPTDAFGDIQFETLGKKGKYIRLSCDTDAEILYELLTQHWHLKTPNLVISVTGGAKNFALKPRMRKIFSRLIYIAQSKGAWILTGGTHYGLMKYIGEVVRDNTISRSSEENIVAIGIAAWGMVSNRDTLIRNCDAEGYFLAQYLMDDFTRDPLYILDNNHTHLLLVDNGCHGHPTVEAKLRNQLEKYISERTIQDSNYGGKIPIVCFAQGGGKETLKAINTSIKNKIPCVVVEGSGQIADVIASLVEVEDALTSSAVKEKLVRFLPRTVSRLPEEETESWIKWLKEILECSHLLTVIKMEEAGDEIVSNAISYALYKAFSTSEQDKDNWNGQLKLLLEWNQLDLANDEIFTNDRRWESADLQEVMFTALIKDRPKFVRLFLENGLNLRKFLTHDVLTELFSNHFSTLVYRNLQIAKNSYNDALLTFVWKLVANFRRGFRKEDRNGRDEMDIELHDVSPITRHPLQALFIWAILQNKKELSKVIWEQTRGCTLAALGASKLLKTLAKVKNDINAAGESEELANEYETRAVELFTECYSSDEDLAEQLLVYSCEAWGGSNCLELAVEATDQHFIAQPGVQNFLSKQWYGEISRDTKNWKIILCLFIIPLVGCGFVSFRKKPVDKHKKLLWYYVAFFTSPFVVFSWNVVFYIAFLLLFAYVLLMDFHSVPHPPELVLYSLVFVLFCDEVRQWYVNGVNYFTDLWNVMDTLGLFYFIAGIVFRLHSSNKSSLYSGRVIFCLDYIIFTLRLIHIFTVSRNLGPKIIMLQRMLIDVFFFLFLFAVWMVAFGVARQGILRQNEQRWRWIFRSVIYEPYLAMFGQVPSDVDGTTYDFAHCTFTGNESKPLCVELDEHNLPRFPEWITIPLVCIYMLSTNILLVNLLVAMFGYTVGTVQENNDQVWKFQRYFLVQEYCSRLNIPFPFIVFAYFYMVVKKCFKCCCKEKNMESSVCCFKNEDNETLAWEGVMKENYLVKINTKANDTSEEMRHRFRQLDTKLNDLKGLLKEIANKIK", "assay": "Bioassay of FEMA 4557 in TRPM8 (laboratory of Prof. Seok-Yong Lee, FIG. 4)", "type": "cell-based", "excerpt": "(§1) FIG. 4 Bioassay of FEMA 4557 (labeled as BUDA on the graph) in TRPM8 and TRPA1. Data from the laboratory of Prof. Seok-Yong Lee at Duke University.\n(§2) FIG. 4 Bioassay of FEMA 4557 (labeled as BUDA) in TRPM8 and TRPA1. Data of Prof. Seok-Yong Lee at Duke University."}, "[2]": {"molecular_target": "T2, TRPA1 (Homo sapiens, UniProt O75762)", "T2 construct": "expressed in transfected cells", "T2 sequence (O75762 whole entry, species assumed)": "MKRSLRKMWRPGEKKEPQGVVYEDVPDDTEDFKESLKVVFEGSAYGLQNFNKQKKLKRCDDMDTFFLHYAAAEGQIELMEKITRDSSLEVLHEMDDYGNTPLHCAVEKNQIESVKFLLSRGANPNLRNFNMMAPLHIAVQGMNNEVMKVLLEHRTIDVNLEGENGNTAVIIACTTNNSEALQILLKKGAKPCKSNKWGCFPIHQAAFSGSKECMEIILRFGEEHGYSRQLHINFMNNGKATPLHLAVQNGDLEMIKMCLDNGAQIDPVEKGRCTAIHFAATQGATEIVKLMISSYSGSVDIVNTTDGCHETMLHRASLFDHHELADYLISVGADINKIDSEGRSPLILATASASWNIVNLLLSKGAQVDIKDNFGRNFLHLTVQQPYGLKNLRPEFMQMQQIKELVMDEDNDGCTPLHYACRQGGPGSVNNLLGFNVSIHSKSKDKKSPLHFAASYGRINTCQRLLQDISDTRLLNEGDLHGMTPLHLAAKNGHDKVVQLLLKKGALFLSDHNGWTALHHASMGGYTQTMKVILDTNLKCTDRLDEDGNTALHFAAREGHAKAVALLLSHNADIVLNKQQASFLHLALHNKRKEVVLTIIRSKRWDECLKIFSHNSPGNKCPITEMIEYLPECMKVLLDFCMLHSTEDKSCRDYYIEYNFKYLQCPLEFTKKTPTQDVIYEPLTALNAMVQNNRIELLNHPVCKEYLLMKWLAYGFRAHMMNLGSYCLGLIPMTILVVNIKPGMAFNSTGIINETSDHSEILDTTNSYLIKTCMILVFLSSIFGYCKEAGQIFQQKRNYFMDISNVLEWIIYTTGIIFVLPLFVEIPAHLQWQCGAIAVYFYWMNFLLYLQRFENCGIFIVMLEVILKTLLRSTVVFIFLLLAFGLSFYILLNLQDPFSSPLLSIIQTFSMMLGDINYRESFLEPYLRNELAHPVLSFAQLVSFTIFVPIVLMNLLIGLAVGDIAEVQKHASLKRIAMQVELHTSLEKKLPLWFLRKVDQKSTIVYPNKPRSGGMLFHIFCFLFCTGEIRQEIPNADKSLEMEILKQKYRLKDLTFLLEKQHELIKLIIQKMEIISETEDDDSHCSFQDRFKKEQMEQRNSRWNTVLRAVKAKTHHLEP", "assay": "Bioassay in cells transfected with TRPA1 (FIG. 4)", "type": "cell-based", "excerpt": "as §1, §2"}, "[3]": {"tested_on": "tongue", "assay": "Oral cavity screen: 15 mg of crystals on the dorsal surface of the tongue", "type": "in vivo, human", "experimental": "In this discovery, sensory activity in the oral cavity was the first screen. The goal was to identify candidates producing unusual sensations. Test agents, prepared as 15 mg of white crystals, were placed on the dorsal surface of the tongue. The chemical structures and identifying characteristics are in Table 1. […] Related cooling agents were not freezing cold, except for WS-23."}, "[4]": {"tested_on": "philtrum skin", "assay": "Philtrum (skin) bioassay of cooling", "type": "in vivo, human", "experimental": "FIG. 5. The philtrum bioassay. Cooling agents, prepared as a or in solution are applied to the philtrum skin. Cooling intensity is rated on a scale of 0 to 3, with 0=no changes in sensation, 1=a slight feeling of coolness, cold or tingling, 2=a clearcut feeling of coolness of cold, and 3=a robust feeling of coolness of cold. The duration of cooling was recorded until two zeroes were measured 10 min apart.\nTRPM8 EC50 Receptor Assay. […] A receptor assay is a standard tool and can be done quickly. For example, in a 384-plate assay, you can easily test 10 compounds and get dose-response data. For a chemical agonist, an in vitro TRPM8 assay generates an EC50 (median effective concentration). But the quantitative correlation between the EC50 on TRPM8 and cooling sensation was vague. That is, the science was “roughly” predictive, but there was considerable uncertainty for each agonist. […] Philtrum (Skin) Assay. For cooling sensations on the skin, it is necessary to test the substance on the skin. Wei proposed the use of the skin on the philtrum as a test site for cooling activity of chemicals (FIG. 5). The test substance is dissolved in a carrier, such as solvent, gel, or ointment and applied to the philtrum, a surface area of […]. The subject records sensations on the philtrum and environs as:\nThe subject is given a form to record observations and instructions to mark sensations on the philtrum and environs as: 0=no changes in sensation, 1=a slight feeling of coolness, cold, or tingling, 2=a clearcut feeling of coolness or cold, and 3=a robust feeling of coolness and cold.\nThe intervals for measurements are usually at 5, to 15 min after application, until two successive zeros are obtained. The philtrum application site is the midline groove above the upper lip border and vermilion. The gel is placed on the philtrum with a cotton-tipped applicator up to the nasolabial folds and sometimes, but not deliberately, on the lower nostrils (subnasale). Cold receptors densely innervate the philtrum skin (FIG. 5), second only to the surfaces of the eyeball and anogenitalia. The lips also have a high density of “cold spots.” Hensel et al. mapped the cold spots on the human face (cited in Dhaka et al., 2008). In animals such as the rat the mystacial pad (nose pad with vibrissae) is abundantly labeled with TRPM8-fibers. “Cold Points” linked to single-unit neuronal discharges can be measured in experimental animals. Wei has direct experience in such experiments (Poree et al., 1989).\nDip a cotton-tipped applicator (Puritan Cotton-tipped applicators, or Q-Tips) into a reservoir bottle containing the liquid or semi-liquid (gel) test substance. The composition adhering to the cotton (about 0.1 mL) is put on the skin. The philtrum site is shown in a cartoon. A subject can practice the method in front of a mirror with a high-intensity light source. Results for test on the philtrum are in Table 8 and FIG. 5. See data in FIG. 6. Cooling agents, prepared as an 8% wt./vol. gel, was tested topically on the philtrum skin assay. The duration of cooling was recorded (min on y-axis). The startling activity of FEMA 4557, cooling for ˜3 hr, was unexpected and surprising. FEMA 3784 is also known as Cool 10 or menthoxypropanediol. […]"}, "[5]": {"tested_on": "canine dermatitis, scratching and licking", "assay": "Topical treatment of canine skin irritation (case studies)", "type": "in vivo, dog", "experimental": "The Applicant gave the dog's owner an airless pump dispenser containing 8% wt/vol of FEMA 4557 dispersed in 4 mg/ml of carbapol 980, formulated with 1% ethanol and 1% menthol, and instructed him to apply the gel to the skin of the dog's belly and groin.\nA twelve-year-old West Highland Terrier had periodic episodes of seasonal skin allergy. […] The owner of the dog, who had access to a pharmacy, applied nystatin ointment and a potent skin steroid cream containing […].\nNext, a 20% wt/vol FEMA 4557 solution, dissolved in propylene glycol, was applied to the interdigital folds of the paws with a cotton-tipped applicator (FIG. 9)."}, "[6]": {"assay": "Comparison of classes of cooling agents for applications on the canine skin (grades)", "parameters": "species or system dog; key: A = excellent; B = average; C = poor; F = does not work", "conditions": "grade", "excerpt": "Here are comments on grades assigned to specific classes of cooling agents (Table 3). […] The p-menthane carboxamides cover a wide range of compounds, but they are difficult for skin formulation to achieve a long duration of action. Menthol is short-acting and irritating, especially when it is near the ocular surface. The 1-dialkylphosphorylalkane known as DIPA1-7 (Cryosim-1, 1-dialkylphosphorylheptane) is an excellent skin agent, but costs are high for dermatological applications."}, "[7]": {"molecular_target": "T2, TRPA1", "conditions": "Johnson et al. 2018; applicant could not repeat; cited from earlier work"}, "[8]": {"tested_on": "oral cavity", "conditions": "100 ppm in 5% sucrose; scale of 0 to 9 units; Johnson, 2018; cited from earlier work"}, "[9]": {"tested_on": "canine dermatitis, scratching and licking", "assay": "Topical treatment of canine skin irritation (case studies)", "type": "in vivo, dog", "conditions": "32% wt/vol liquid in 1,2-propanediol, 4% ethanol, 4% l-menthol"}, "[10]": {"molecular_target": "T1, TRPM8", "parameters": "EC50; other: Johnson, 2.2/2.2", "conditions": "Ref. 5 (Johnson et al., 2018); cited from earlier work"}, "[11]": {"conditions": "8% wt/vol gel with ethanol, 1,2-propanediol, carbomer and dispersing agent or 0.2% DIPA-1-7 initiator"}, "[12]": {"conditions": "topical liquid or gel, Table 11"}},
  "note": "“Also recorded” adds a separate entry of the source. Like-named read-outs stand apart in the source and are kept apart here.",
  "data": [
    {"smiles": "CCNC(=O)C(CC)(C(C)C)C(C)C", "note": "[FEMA 4557, N-ethyl-2,2-diisopropylbutanamide]", "values": [
      {"measurement": "EC50 potency relative to l-menthol", "setting": "[1]; FIG. 4", "value": "about 1/30"},
      {"measurement": "EC50", "setting": "[1]; FIG. 4, estimated", "value": 410, "unit": "µM"},
      {"measurement": "activity on TRPM8 as % of the activity of l-menthol", "setting": "[1]; further experiments by the applicant", "value": 10, "unit": "%"},
      {"measurement": "potency relative to menthol", "setting": "[1]; tests by Prof Lee (FIG. 4)", "value": "< 0.1"},
      {"measurement": "activity on TRPA1", "setting": "[2]", "value": "absence of activity; also recorded: not active"},
      {"measurement": "Effects of 15 mg on tongue: duration", "setting": "[3]", "value": "> 35", "unit": "min"},
      {"measurement": "Effects of 15 mg on tongue: sensation", "setting": "[3]", "value": "stinging, freezing, and painful cold on the throat; also recorded: stinging, painful freezing cold in throat"},
      {"measurement": "Effects of 15 mg on tongue: sensation", "setting": "[3]; listed as 4557", "value": "stinging, painful cold"},
      {"measurement": "average time of cooling", "setting": "[4]; 8% concentration", "value": "≥ 175", "unit": "min"},
      {"measurement": "Duration of cooling", "setting": "[4]; 8% wt./vol. gel, FIG. 6", "value": "~3", "unit": "h"},
      {"measurement": "Comments: quality of sensation on philtrum skin", "setting": "[4]; 8% wt/vol", "value": "icy cold sensations, prolonged cooling,"},
      {"measurement": "duration of effect of topical gel", "setting": "[4]; [11]", "value": "≥ 3", "unit": "h"},
      {"measurement": "onset of topical gel", "setting": "[4]; [11]", "value": "less than 3 min"},
      {"measurement": "Duration of cooling", "setting": "[4]; 8% wt/vol on philtrum", "value": "180+ min"},
      {"measurement": "total therapeutic duration", "setting": "[4]; 16 to 32%", "value": "at least 6 hr"},
      {"measurement": "after effect: further cooling on the skin", "setting": "[4]; 16 to 32%, revealed by warm towel", "value": 3, "unit": "h"},
      {"measurement": "cooling duration compared to menthol", "setting": "[4]; >180/25", "value": "> 7", "unit": "fold"},
      {"measurement": "Duration-Skin", "setting": "[4]; Wei, Table 6, see FIG. 6", "value": "3+ Hours"},
      {"measurement": "Duration of cooling", "setting": "[4]; concentrations ≥5%, FIG. 7", "value": "≥ 1", "unit": "h"},
      {"measurement": "skin tissue irritation or inflammation", "setting": "[4]; concentrations ≥5%, up to 50% wt/vol", "value": "not observed or detected"},
      {"measurement": "average time of cooling", "setting": "[4]; first concentration of '2.4 and 8%' (2%)", "value": 50, "unit": "min"},
      {"measurement": "effective concentration for topical activity on the skin", "setting": "[4]; in vivo", "value": "≥ 5", "unit": "%"},
      {"measurement": "average time of cooling", "setting": "[4]; second concentration of '2.4 and 8%' (4%)", "value": 95, "unit": "min"},
      {"measurement": "Duration of cooling", "setting": "[4]; single dose of the 16 to 32% solution", "value": "~3", "unit": "h"},
      {"measurement": "sensation on the philtrum", "setting": "[4]; solution at ≥64%", "value": "pleasant and robust cool"},
      {"measurement": "adverse sensations of stinging cold", "setting": "[4]; solution at ≥64% on the philtrum", "value": "No cold stinging sensations were felt"},
      {"measurement": "tolerability on the skin", "setting": "[4]; solutions of ≥32%", "value": "well-tolerated"},
      {"measurement": "Onset", "setting": "[4]; [12]", "value": "~10", "unit": "min"},
      {"measurement": "scratching and licking", "setting": "[5]; Study 2, Dachshund, 8% wt/vol gel on belly and groin, within one day", "value": "scratching and licking were reduced"},
      {"measurement": "redness and swelling", "setting": "[5]; Study 2, after three days of daily application of 8% gel", "value": "the redness and swelling disappeared"},
      {"measurement": "licking of paws", "setting": "[5]; Study 3, 20% wt/vol solution in propylene glycol on interdigital folds", "value": "stopped licking its front paws"},
      {"measurement": "scratching", "setting": "[5]; Study 3, West Highland Terrier, 8% gel on groin, hindquarters, perianal area", "value": "stopped the scratching"},
      {"measurement": "signs of skin discomfort", "setting": "[5]; Study 3, after five days of treatment", "value": "All signs of skin discomfort disappeared"},
      {"measurement": "anti-itch effect of topical formulations", "setting": "[5]; topical gel or solution, insect bites, dermatitis, allergies", "value": "effectively treated the itch; also recorded: anti-itch effects on flea bites and other skin"},
      {"measurement": "Side-effects", "setting": "[5]; [12]", "value": "None observed"},
      {"measurement": "Absence of Irritancy", "setting": "[6]", "value": "A"},
      {"measurement": "Potency", "setting": "[6]", "value": "C"},
      {"measurement": "Rapid Onset", "setting": "[6]", "value": "B"},
      {"measurement": "Safety in Use", "setting": "[6]", "value": "A"},
      {"measurement": "Sufficient Duration", "setting": "[6]", "value": "A+"},
      {"measurement": "activity on TRPA1 as reported in literature", "setting": "[7]", "value": "activates TRPA1"},
      {"measurement": "Cooling Intensity Oral Cavity Scaled", "setting": "[8]", "value": 3.3},
      {"measurement": "effect on scratching and rashes", "setting": "[9]", "value": "effective for scratching caused by bites of ectoparasites and rashes caused by yeast infection"},
      {"measurement": "EC50", "setting": "[10]", "value": 1600, "unit": "nM"}
    ]}
  ]
}
